According to publication PMC10762078, “Role of UPF1-LIN28A interaction during early differentiation of pluripotent stem cells” (Nature Communications, 2024):
Blank lines part the entries; values can stand above or below the molecule they belong to. Ends that are not written are not given here.

How the values were obtained:
[1] = tested on: HeLa, PA-1 and CHA15 cells; assay: Cell-penetrating efficiency of CPP-FITC by confocal microscopy; format: cell-based; settings: PA-1, CHA15
Method: (§1) For CPP-conjugated peptide delivery, HeLa, 293T, and PA-1 cells were incubated with CPP-conjugated peptides or CPP-FITC at 2 μM in DMEM with 10% FBS for 12 h a day before cell harvest. hPSCs were treated with CPP-conjugated peptides at 10 μM in mTeSR Plus Medium, and the peptide-containing medium was changed every day over 10 days. The ROCK inhibitor (Tocris Bioscience, Y-27632) treated-hPSCs were dissociated into single cells using Accutase (Merck, SCR005) and differentiated into ectoderm, mesoderm, and endoderm using the STEMdiff Trilineage Differentiation Kit ([…] Technologies, 05230) following the manufacturer’s protocol. Differentiated cells treated with CPP-conjugated peptides were analysed at 0, 3, and 5 days for ectoderm and endoderm, and at 0, 3, and 4 days for mesoderm.
Immunofluorescence staining, proximity ligation assay imaging, and cell-penetrating efficiency of CPP-FITC were imaged with a confocal laser scanning microscope (Leica, TSC SP5) or immunofluorescence microscope (Leica, DM5000B). Z-stacks were captured, with sections spanning the entire cell. The LAS X Life Science program was used to obtain the maximum intensity projections and cross-sections of the confocal images.
DAPI FITC Merge DAPI FITC Merge CHA15 H9 Pro2 H9
No peptide CPP-FITC Calnexin
For 2-day treatm ent For 4-day treatm ent […]
Supplementary Fig. 5 a HeLa, PA- 1, and CHA15 wer e treated with CPP-FITC. […]

[2] = tested on: let-7a, let-7g, miR-16-5p and their targets in CHA15 cells; assay: RT-qPCR of mature LIN28A-regulated miRNAs and CDF of let-7-5p / miR-16-5p target mRNAs (Supplementary Fig. 6f); format: cell-based, human; settings: Fig. s6f, cumulative curves; P2/P1; Asymptotic two-sample Kolmogorov-Smirnov test, two-sided
Method: cDNA was synthesised using RevertAid Reverse Transcriptase (Thermo Fisher Scientific, EP0441) with synthesised random hexamer (Macrogen) for total RNA or stem-loop primers for miRNA. For RT-qPCR reactions, the SensiFAST SYBR No-ROX kit (Meridian Bioscience) was used according to the manufacturer’s protocol. All data analysis and visualisation were conducted using R 3.6.1 [www.r-project.org] or GraphPad Prism 10. RT primers for miRNA and RT-qPCR primer sequences are provided in Supplementary Data 6.
Genes regulated by miRNA let-7-5p and miR-16-5p were determined by TargetScanHuman. Among miRNA targets sorted by cumulative weighted context++ score (CWCS)[57], the 100 top genes were selected and analysed using CDF. […]
Scatter
(bottom panel), respectively. f Levels of m ature endogenous m iRNAs in CHA15 cells, which were regulated by LIN28A, were assessed using RT -qPCR. Cum ulative f raction of log2 fold change in the expression of genes regulated by let-7-5p and m iR-16- 5p was shown as CDF graphs. T he relative level of m RNA was norm alised to that of U6 snRNA in (c, d, and f). K–S tests were used for e and f. Unpaired Student’s t-test was used for c , d, and f . * p < 0.05, ** p < 0.01, *** p < 0.001. Exact p -values were provided in Source data. Data are presented as m ean values ± SEM. All statistical test used were two- sided. T he m inim um num ber of independent biological replicate experim ents was a and e n = 2, b–d and f n = 3. T he experim ents were conducted three tim es, each iteration producing consistent results.

[3] = tested on: CHA15 cells transcriptome / NMD targets; assay: RNA-seq of CPP-peptide-treated CHA15 cells (NMD targets, SDGs; Fig. 6a, b, d; Supplementary Fig. 6a; Supplementary Data 2); format: cell-based, Homo sapiens; settings: CHA15, P2 vs P1 plot (Fig. 6d)
Method: as §1, with “and the peptide-containing medium was changed every day over 10 days.” left out
Total RNA concentration was calculated using Quant-IT RiboGreen (Invitrogen, R11490). To assess the integrity of the total RNA, samples were run on a TapeStation RNA screentape (Agilent). Only high-quality RNA preparations with RNA integrity number greater than 7.0 were used for the RNA library construction. A library was independently prepared with 1 μg of total RNA from each sample using the Illumina TruSeq Stranded mRNA Sample Prep Kit (Illumina, 20020594). The first step in the workflow involves purifying poly‐A-containing mRNA molecules using poly‐T‐attached magnetic beads. Following purification, mRNA was fragmented into small pieces using divalent cations at elevated temperatures. The cleaved RNA fragments were copied into first-strand cDNA using SuperScript II reverse transcriptase (Invitrogen, 18064022) and random primers. This was followed by second-strand cDNA synthesis using DNA polymerase I, RNase H, and dUTP. These cDNA fragments underwent an end repair process, adding a single ‘A’ base and ligating the adapters. The products were purified and enriched via PCR to create the final cDNA library. The libraries were quantified using the KAPA Library Quantification Kits for Illumina Sequencing platforms according to the qPCR Quantification Protocol Guide (KAPA BIOSYSTEMS, KR0405) and qualified using the TapeStation D1000 ScreenTape (Agilent). Indexed libraries were then submitted to an Illumina NovaSeq (Illumina), and Macrogen Inc. performed paired-end (2 × 100 bp) sequencing.
We pre-processed the raw reads from the sequencer to remove low-quality reads and adapter sequences before analysis and aligned the processed reads to Homo sapiens (GRCh37) using HISAT v2.1.0[52]. HISAT utilises two indices for alignment (a global whole-genome index and tens of thousands of small local indexes). These two types of indices are constructed using the same Burrows-Wheeler transform (BWT)/graph FM index (GFM) as Bowtie2. The reference genome sequence of Homo sapiens (GRCh37) and the annotation data were downloaded from the NCBI database. Transcript assembly was processed using StringTie v1.3.4d[53],[54]. […] Differentially expressed genes (DEGs) were analysed by ratio of FPKM or using DESeq2 with read counts. Log2 fold-change value of the NMD targets[25],[32], three germ layer markers, miRNA targets, or SDGs was converted into cumulative frequency curve using the R function, ‘ecdf’ (version 4.0.5). Gene functional classification and Gene ontology (GO) were performed using g:Profiler[56].

[4] = target: T1, His-LIN28A (Homo sapiens, UniProt Q9H9Z2); assay: SPR analyte-ligand binding screening of eight peptides (P1-P8); settings: SPR screening at 15 μM, 3 min association, 6 min dissociation
T1 construct: purchased LS-bio LS-G637
T1 sequence (Q9H9Z2 1-209): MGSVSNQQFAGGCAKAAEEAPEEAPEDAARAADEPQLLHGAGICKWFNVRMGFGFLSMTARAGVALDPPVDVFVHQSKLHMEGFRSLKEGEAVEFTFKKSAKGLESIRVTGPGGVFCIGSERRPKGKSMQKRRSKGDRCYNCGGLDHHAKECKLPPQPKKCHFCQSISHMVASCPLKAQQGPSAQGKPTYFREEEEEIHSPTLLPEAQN
Method: For ligand immobilisation, the nitrilotriacetic acid (NTA) surface gold sensor chip (icluebio) was activated with 5 mM NiCl2 (Xantec) at a flow rate of 30 μL/min, following equalisation with 1× HBS-T buffer. His-LIN28A (LS-bio, LS-G637) was used as a ligand protein and was applied to a sensor chip at a flow rate of 10 μL/min for 40 min after dilution in 1× HEPES-buffered saline (HBS-T) buffer at a 1/20 ratio. Approximately 1000 resonance units (RU) were bonded to the sensor chip after ligand immobilisation. RU was measured using iMSPR-ProX (icluebio). An indigenous NTA sensor chip was used as a reference channel.
Analyte-ligand binding screening was performed by tethering the ligand and reference channels in the connected mode. […] After equalisation with 1× HBS-T buffer, the sensor chip was treated with each peptide for 3 min and then for 6 min with 1× HBS-T buffer for peptide dissociation.

[5] = target: T2, His-LIN28A (UniProt Q9H9Z2 1-209); assay: SPR
T2 chain: T1 sequence (Q9H9Z2 1-209)

[6] = target: T2, His-LIN28A; assay: SPR

Molecule: CPP-FITC: CPP conjugated to FITC, used to evaluate cell-penetrating ability in cells (KKKWCRKKK; also: FITC conjugate)
- intracellular distribution [1]: distribution of CPP-FITC in the cytoplasm

Molecule: KKKWCRKKKMPELQKLQQLKDE [CPP-P2, CPP conjugated to P2; negative control, reference compound]
- let-7-5p targets, log2FC cumulative curve: Kolmogorov-Smirnov D [2]: 0.07965
- miR-16-5p targets, log2FC cumulative curve: Kolmogorov-Smirnov D [2]: 0.2271
- ACADL expression (dot plot) [3]: -0.6893
- AOC1 expression (dot plot) [3]: -1.502
- BLOC1S5-TXNDC5 expression (dot plot) [3]: -0.1425
- TRIM39-RPP21 expression (dot plot) [3]: 0.7164

- binding affinity vs others [4]: slightly
Molecule: N-STSFDRMQSALKTFAVD-C [P4, peptide derived from the UPF1 (419–700) domain]

- koff [5]: 0.0137 s⁻¹
- Kd [6]: 5.2 µM
Molecule: SSADEKRYRALKRTAERELLMNA [P8]
